{"source": "ChEMBL document CHEMBL5154678", "about": "“Lysine Stapling Screening Provides Stable and Low Toxic Cationic Antimicrobial Peptides Combating Multidrug-Resistant Bacteria In Vitro and In Vivo” (J Med Chem, 2022)", "key": {"[1]": {"test_system": "Escherichia coli", "assay": "Antibacterial activity against Escherichia coli BNCC 133264 assessed as inhibition of bacterial growth incubated for 16 hrs by broth microdilution method", "type": "functional"}, "[2]": {"assay": "Toxicity in C57BL/6 mouse assessed as effect on aspartate transaminase level at 5 to 20 mg/kg, ip administered once daily for 5 days and measured after 6 days", "type": "organism-based", "details": "in vivo, 120 h, dose 5-20 mg/kg, time 5 day"}, "[3]": {"test_system": "Staphylococcus aureus", "assay": "Antibacterial activity against methicillin-resistant Staphylococcus aureus BNCC 186335 infected in mouse C57BL/6 assessed as reduction in intracellular bacterial burden in spleen at 2 mg/kg ,ip incubated for 24 hrs", "type": "functional, organism-based"}, "[4]": {"test_system": "Cell membrane", "assay": "Induction of membrane disruption in multidrug-resistant Acinetobacter baumannii assessed as loss of cell integrity at 16 ug/ml measured after 2 hrs by SEM analysis", "type": "subcellular", "details": "dose 16.0 µg/ml"}, "[5]": {"test_system": "Staphylococcus aureus", "assay": "Antibacterial activity against Staphylococcus aureus BNCC 186335 assessed as inhibition of bacterial growth incubated for 16 hrs by broth microdilution method", "type": "functional"}, "[6]": {"test_system": "Staphylococcus aureus", "assay": "Antibacterial activity against methicillin-resistant Staphylococcus aureus assessed as inhibition of bacterial growth incubated for 16 hrs by broth microdilution method", "type": "functional"}, "[7]": {"test_system": "Enterococcus faecium", "assay": "Antibacterial activity against multidrug-resistant Enterococcus faecium assessed as inhibition of bacterial growth incubated for 16 hrs by broth microdilution method", "type": "functional"}, "[8]": {"assay": "Toxicity in C57BL/6 mouse assessed as abnormalities and pathological changes in liver at 20 mg/kg, ip administered once daily for 5 days by H and E staining based assay", "type": "organism-based", "details": "in vivo, 120 h, time 5 day"}, "[9]": {"test_system": "Cell membrane", "assay": "Induction of membrane disruption in methicillin-resistant Staphylococcus aureus BNCC 186335 assessed as loss of cell integrity at 16 ug/ml measured after 2 hrs by SEM analysis", "type": "subcellular", "details": "dose 16.0 µg/ml"}, "[10]": {"test_system": "Klebsiella pneumoniae", "assay": "Antibacterial activity against multidrug-resistant Klebsiella pneumoniae assessed as inhibition of bacterial growth incubated for 16 hrs by broth microdilution method", "type": "functional"}, "[11]": {"test_system": "Pseudomonas aeruginosa", "assay": "Antibacterial activity against Pseudomonas aeruginosa BNCC 125486 assessed as inhibition of bacterial growth incubated for 16 hrs by broth microdilution method", "type": "functional"}, "[12]": {"test_system": "Staphylococcus aureus", "assay": "Antibacterial activity against methicillin-resistant Staphylococcus aureus BNCC 186335 assessed as inhibition of bacterial growth incubated for 4 hrs in presence of 25% plasma by broth microdilution method", "type": "functional"}, "[13]": {"test_system": "HEK-293T", "assay": "Cytotoxicity against human HEK293T cells assessed as cell survival rate at 64 Ug/ml incubated for 24 hrs by MTT assay relative to control", "type": "toxicity, cell-based", "details": "dose 64 µg/ml"}, "[14]": {"test_system": "Staphylococcus aureus", "assay": "Antibacterial activity against multidrug-resistant Staphylococcus aureus BNCC 186335 assessed as inhibition of bacterial growth incubated for 16 hrs by broth microdilution method", "type": "functional"}, "[15]": {"test_system": "Cell membrane", "assay": "Induction of membrane damage in methicillin-resistant Staphylococcus aureus BNCC 186335 assessed as disruption of membrane integrity at 16 ug/ml incubated for 2 hrs by propidium iodide staining based assay", "details": "dose 16.0 µg/ml"}, "[16]": {"test_system": "Escherichia coli", "assay": "Antibacterial activity against multidrug-resistant Escherichia coli BNCC 133264 assessed as inhibition of bacterial growth incubated for 16 hrs by broth microdilution method", "type": "functional"}, "[17]": {"test_system": "Staphylococcus aureus", "assay": "Antibacterial activity against methicillin-resistant Staphylococcus aureus BNCC 186335 infected in mouse C57BL/6 assessed as reduction in intracellular bacterial burden in liver at 2 mg/kg ,ip incubated for 24 hrs", "type": "functional, organism-based"}, "[18]": {"test_system": "HEK-293T", "assay": "Cytotoxicity against human HEK293T cells assessed as cell survival rate at 256 ug/ml incubated for 24 hrs by MTT assay", "type": "toxicity, cell-based", "details": "dose 256 µg/ml"}, "[19]": {"test_system": "Cell membrane", "assay": "Induction of membrane damage in methicillin-resistant Staphylococcus aureus BNCC 186335 assessed as concentration of stained cells incubated for 2 hrs by propidium iodide staining based flow cytometer assay", "type": "subcellular", "details": "DDE = dose-dependent effect"}, "[20]": {"assay": "Toxicity in C57BL/6 mouse assessed as effect on alanine aminotransferase level at 5 to 20 mg/kg, ip administered once daily for 5 days and measured after 6 days", "type": "organism-based", "details": "in vivo, 120 h, dose 5-20 mg/kg, time 5 day"}, "[21]": {"assay": "Toxicity in C57BL/6 mouse assessed as effect on body weight at 5 to 20 mg/kg, ip administered once daily for 5 days and measured every 24 hrs", "type": "organism-based", "details": "in vivo, 120 h, dose 5-20 mg/kg, time 5 day"}, "[22]": {"test_system": "Escherichia coli", "assay": "Antibacterial activity against cephalosporin-resistant Escherichia coli BNCC 133264 assessed as inhibition of bacterial growth incubated for 16 hrs by broth microdilution method", "type": "functional"}, "[23]": {"test_system": "Staphylococcus aureus", "assay": "Drug resistance development in Staphylococcus aureus assessed as change in MIC at sub-MIC concentration measured after 60 passages", "type": "functional, organism-based"}, "[24]": {"test_system": "Cell membrane", "assay": "Induction of membrane damage in multidrug-resistant Acinetobacter baumannii assessed as concentration of stained cells incubated for 2 hrs by propidium iodide staining based flow cytometer assay", "type": "subcellular", "details": "dose 16.0 µg/ml"}, "[25]": {"assay": "Toxicity in C57BL/6 mouse assessed as abnormalities and pathological changes in kidney at 20 mg/kg, ip administered once daily for 5 days by H and E staining based assay", "type": "organism-based", "details": "in vivo, 120 h, time 5 day"}, "[26]": {"assay": "Toxicity in C57BL/6 mouse assessed as effect on blood urea nitrogen level at 5 to 20 mg/kg, ip administered once daily for 5 days and measured after 6 days", "type": "organism-based", "details": "in vivo, 120 h, dose 5-20 mg/kg, time 5 day"}, "[27]": {"test_system": "Acinetobacter baumannii", "assay": "Bactericidal activity against multidrug-resistant Acinetobacter baumannii assessed as log reduction in colony forming unit at 32 ug/ml measured after 10 mins by time kill assay", "type": "functional, organism-based", "details": "dose 32.0 µg/ml"}, "[28]": {"test_system": "Listeria monocytogenes", "assay": "Antibacterial activity against Listeria monocytogenes assessed as inhibition of bacterial growth incubated for 16 hrs by broth microdilution method", "type": "functional"}, "[29]": {"test_system": "Pseudomonas aeruginosa", "assay": "Antibacterial activity against multidrug-resistant Pseudomonas aeruginosa BNCC 125486 assessed as inhibition of bacterial growth incubated for 16 hrs by broth microdilution method", "type": "functional"}, "[30]": {"test_system": "Erythrocyte", "assay": "Hemolytic activity against human RBC assessed as concentration required to cause 10% hemolysis", "type": "toxicity, cell-based"}, "[31]": {"assay": "Stability in human plasma assessed as half life measured after 24 hrs by HPLC analysis", "type": "ADME, cell-free"}, "[32]": {"test_system": "Acinetobacter baumannii", "assay": "Antibacterial activity against multidrug-resistant Acinetobacter baumannii assessed as inhibition of bacterial growth incubated for 16 hrs by broth microdilution method", "type": "functional"}}, "note": "Active and inactive are the calls of the source. The rule behind the calls is not given here. Starred links: 1 amine or outer side, 2 acyl side, 3 side chain; linkers in the order of their positions; H or OH if unused. Positions of bridges follow the written chain, without caps; N, C: chain ends. Non-standard residues stand in square brackets, D forms with d. Residues, ends and D or L forms follow the SMILES beside them. X1 = O=C([C@H](CCCCNCC=[*:3])N[*:1])[*:2]"}
{"smiles": "CC(C)[C@H](N)C(=O)N[C@@H](CCCCN)C(=O)N[C@@H](CCCNC(=N)N)C(=O)N[C@@H](Cc1ccccc1)C(=O)N[C@@H](CCCCN)C(=O)N[C@H]1CCCCNC/C=C/CNCCCC[C@@H](C(=O)N[C@@H](Cc2ccccc2)C(=O)N[C@@H](CCCCN)C(=O)N[C@@H](CCCCN)C(=O)N[C@@H](Cc2ccccc2)C(=O)N[C@H](C(N)=O)C(C)C)NC(=O)[C@H](CCCNC(=N)N)NC(=O)[C@H](Cc2ccccc2)NC(=O)[C@H](Cc2ccccc2)NC1=O", "note": "(H-VKRFK[X1]FFR[X1]FKKFV-NH2; staple (E) 6-10)", "values": [{"measurement": "MIC", "setting": "[1]", "value": 2, "unit": "µg/mL"}, {"measurement": "Activity", "setting": "[2]", "value": "Non-Toxic"}, {"measurement": "Activity", "setting": "[3]", "value": "Active"}, {"measurement": "Activity", "setting": "[4]", "value": "Active"}, {"measurement": "MIC", "setting": "[5]", "value": 2, "unit": "µg/mL"}, {"measurement": "MIC", "setting": "[6]", "value": 2, "unit": "µg/mL"}, {"measurement": "MIC", "setting": "[7]", "value": 4, "unit": "µg/mL"}, {"measurement": "Activity", "setting": "[8]", "value": "Non-Toxic"}, {"measurement": "Activity", "setting": "[9]", "value": "Active"}, {"measurement": "MIC", "setting": "[10]", "value": 32, "unit": "µg/mL"}, {"measurement": "MIC", "setting": "[11]", "value": 16, "unit": "µg/mL"}, {"measurement": "Activity", "setting": "[12]", "value": "Active"}, {"measurement": "Activity", "setting": "[13]", "value": "Toxic"}, {"measurement": "MIC", "setting": "[14]", "value": 8, "unit": "µg/mL"}, {"measurement": "Activity", "setting": "[15]", "value": "Active"}, {"measurement": "MIC", "setting": "[16]", "value": 4, "unit": "µg/mL"}, {"measurement": "Activity", "setting": "[17]", "value": "Active"}, {"measurement": "Activity", "setting": "[18]", "value": "Toxic"}, {"measurement": "Activity", "setting": "[19]", "value": "Dde"}, {"measurement": "Activity", "setting": "[20]", "value": "Non-Toxic"}, {"measurement": "Activity", "setting": "[21]", "value": "Non-Toxic"}, {"measurement": "MIC", "setting": "[22]", "value": 8, "unit": "µg/mL"}, {"measurement": "Activity", "setting": "[23]", "value": "Active"}, {"measurement": "Activity", "setting": "[24]", "value": 80, "unit": "%"}, {"measurement": "Activity", "setting": "[25]", "value": "Non-Toxic"}, {"measurement": "Activity", "setting": "[26]", "value": "Non-Toxic"}, {"measurement": "Activity", "setting": "[27]", "value": "Active"}, {"measurement": "MIC", "setting": "[28]", "value": 4, "unit": "µg/mL"}, {"measurement": "MIC", "setting": "[29]", "value": 8, "unit": "µg/mL"}, {"measurement": "MHC", "setting": "[30]", "value": "> 128", "unit": "µg/mL"}, {"measurement": "half-life", "setting": "[31]", "value": 13, "unit": "h"}, {"measurement": "MIC", "setting": "[32]", "value": 4, "unit": "µg/mL"}]}
